{
  "source": "patent US11878972B2",
  "about": "“Treatment of neurological disorders” (TORQUR AG, priority 2016, dated 2024)",
  "data": [
    {"target": "T1, N-terminally GST-tagged mTOR (truncated version: amino acids 1360-2549) (Homo sapiens, UniProt P42345)", "T1 construct": "truncated version: amino acids 1360-2549; purchased Life Technologies PR8683B", "T1 sequence (P42345 1360-2549)": "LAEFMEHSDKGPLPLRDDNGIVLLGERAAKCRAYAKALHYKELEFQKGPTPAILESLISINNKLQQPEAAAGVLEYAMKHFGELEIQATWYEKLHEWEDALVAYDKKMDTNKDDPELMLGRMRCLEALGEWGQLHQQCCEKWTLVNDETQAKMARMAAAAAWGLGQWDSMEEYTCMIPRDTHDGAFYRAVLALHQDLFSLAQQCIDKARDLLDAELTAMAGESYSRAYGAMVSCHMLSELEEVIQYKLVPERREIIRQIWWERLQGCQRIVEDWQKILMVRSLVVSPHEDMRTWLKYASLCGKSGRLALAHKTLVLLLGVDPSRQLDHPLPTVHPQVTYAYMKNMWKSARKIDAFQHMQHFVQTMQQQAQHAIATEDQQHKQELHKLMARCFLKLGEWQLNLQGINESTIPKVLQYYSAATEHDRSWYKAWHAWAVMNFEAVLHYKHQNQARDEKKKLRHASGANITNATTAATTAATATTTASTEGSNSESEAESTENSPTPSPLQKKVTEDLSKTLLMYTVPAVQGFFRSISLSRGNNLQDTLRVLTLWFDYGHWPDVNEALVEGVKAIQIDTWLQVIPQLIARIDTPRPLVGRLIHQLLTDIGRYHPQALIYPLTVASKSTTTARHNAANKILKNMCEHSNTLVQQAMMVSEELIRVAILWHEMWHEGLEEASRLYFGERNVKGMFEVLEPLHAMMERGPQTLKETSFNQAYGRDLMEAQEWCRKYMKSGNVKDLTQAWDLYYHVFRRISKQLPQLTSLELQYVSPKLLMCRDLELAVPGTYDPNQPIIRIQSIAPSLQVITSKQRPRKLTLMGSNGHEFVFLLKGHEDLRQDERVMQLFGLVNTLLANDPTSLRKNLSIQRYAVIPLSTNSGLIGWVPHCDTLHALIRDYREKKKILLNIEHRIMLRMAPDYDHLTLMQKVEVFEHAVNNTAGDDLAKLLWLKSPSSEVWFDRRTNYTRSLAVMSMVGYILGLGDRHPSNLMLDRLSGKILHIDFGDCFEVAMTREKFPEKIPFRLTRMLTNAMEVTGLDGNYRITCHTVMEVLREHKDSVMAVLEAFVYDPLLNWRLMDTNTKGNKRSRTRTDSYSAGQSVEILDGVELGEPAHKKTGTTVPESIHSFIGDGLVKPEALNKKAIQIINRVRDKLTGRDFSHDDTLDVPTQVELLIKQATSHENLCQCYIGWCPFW", "experiment": "In vitro mTOR binding assay (LanthaScreen TR-FRET)", "settings": "3 nM GST-mTOR, 10 nM Tracer 314, 30 min at RT", "units": {"IC50": "nM"}, "method": "A 10-point 4-fold serial dilution (highest concentration at 10 μmol/L and lowest concentration at 40 pmol/L) of each compound was tested for mTOR binding in duplicate in a 384-well plate. […] After 30 min incubation at RT, time-resolved FRET was measured with a Synergy 4 multi-mode microplate reader (Biotek Instruments) using the following settings: 100 microsecs delay before data collection, 200 microsecs time for data collection, 10 measurements per data point.\nIC50 values of each compound were determined by plotting the emission ratio versus the compound concentrations (in logarithmic scale) and then by fitting a sigmoidal dose-response curve with variable slope to the data using GraphPad™ Prism.", "values": [
      {"compound": "Nc1cc(C(F)(F)F)c(-c2nc(N3CCNCC3)nc(N3CCOCC3)n2)cn1", "IC50": 796},
      {"compound": "Nc1ncc(-c2nc(N3CCNCC3)nc(N3CCOCC3)n2)c(C(F)(F)F)n1", "IC50": 2830},
      {"compound": "Nc1cc(C(F)(F)F)c(-c2nc(N3CCOCC3)nc(N3CCSCC3)n2)cn1", "IC50": 118},
      {"compound": "Nc1ncc(-c2nc(N3CCOCC3)nc(N3CCSCC3)n2)c(C(F)(F)F)n1", "IC50": 394}
    ]}
  ]
}
